Results taken from patent US6787543B2, “Benzhydryl derivatives” (Fujisawa Pharmaceutical Co., Ltd., priority 2002, dated 2004).

System: not given
Assay: not given
Conditions: not given

Compound	melting point
COc1ccc(-n2nnnc2C(F)(F)F)cc1CN1C[C@@H]2CN(C(=O)CC(C)C)CCN2[C@H](C(c2ccccc2)c2ccccc2)C1.Cl.Cl	138 to 150 °C (dec.)
COc1ccc(-c2ccsc2)cc1CN1C[C@@H]2CN(C(C)=O)CCN2[C@H](C(c2ccccc2)c2ccccc2)C1.Cl.Cl	177 to 181 °C
COc1ccc(C(F)(F)F)cc1CN1C[C@@H]2CN(C(C)=O)CCN2[C@H](C(c2ccccc2)c2ccccc2)C1.Cl.Cl	147 to 150 °C
COc1ccc(-c2ccncc2)cc1CN1C[C@@H]2CN(C(C)=O)CCN2[C@H](C(c2ccccc2)c2ccccc2)C1.Cl.Cl.Cl	210 to 215 °C
CCOc1ccc(-n2nnnc2C(F)(F)F)cc1CN1C[C@@H]2CN(C(C)=O)CCN2[C@H](C(c2ccccc2)c2ccccc2)C1.Cl.Cl	162 to 165 °C
COc1ccc(-c2ccoc2)cc1CN1C[C@@H]2CN(C(C)=O)CCN2[C@H](C(c2ccccc2)c2ccccc2)C1.Cl.Cl	173 to 177 °C
COc1ccncc1CN1C[C@@H]2CN(C(C)=O)CCN2[C@H](C(c2ccccc2)c2ccccc2)C1.Cl.Cl.Cl	205 to 210 °C
CC(=O)N1CCN2[C@H](CN(Cc3cc(-n4nnnc4C(F)(F)F)ccc3OC(C)C)C[C@H]2C(c2ccccc2)c2ccccc2)C1.Cl.Cl	167 to 171 °C
COc1cc(OC)c(CN2C[C@@H]3CN(C(C)=O)CCN3[C@H](C(c3ccccc3)c3ccccc3)C2)c(OC)c1.Cl.Cl	170 to 173 °C

Other lines, results leading:

melting point	Compound
171 to 175 °C	CCC(=O)N1CCN2[C@H](CN(Cc3cc(-n4nnnc4C(F)(F)F)ccc3OC)C[C@H]2C(c2ccccc2)c2ccccc2)C1.Cl.Cl
172 to 175 °C	COc1ccc(-n2nnnc2C(F)(F)F)cc1CN1C[C@@H]2CN(C(=O)C(C)C)CCN2[C@H](C(c2ccccc2)c2ccccc2)C1.Cl.Cl
162 to 166 °C	CCCC(=O)N1CCN2[C@H](CN(Cc3cc(-n4nnnc4C(F)(F)F)ccc3OC)C[C@H]2C(c2ccccc2)c2ccccc2)C1.Cl.Cl
153 to 156 °C	CCOC(=O)N1CCN2[C@H](CN(Cc3cc(-n4nnnc4C(F)(F)F)ccc3OC)C[C@H]2C(c2ccccc2)c2ccccc2)C1.Cl.Cl
147 to 150 °C	COc1ccc(-n2nnnc2C(F)(F)F)cc1CN1C[C@@H]2CN(C(=O)OC(C)C)CCN2[C@H](C(c2ccccc2)c2ccccc2)C1.Cl.Cl
143 to 146 °C	CCS(=O)(=O)N1CCN2[C@H](CN(Cc3cc(-n4nnnc4C(F)(F)F)ccc3OC)C[C@H]2C(c2ccccc2)c2ccccc2)C1.Cl.Cl
146 to 165 °C	CCCS(=O)(=O)N1CCN2[C@H](CN(Cc3cc(-n4nnnc4C(F)(F)F)ccc3OC)C[C@H]2C(c2ccccc2)c2ccccc2)C1.Cl.Cl
150 to 155 °C	COc1ccc(-n2nnnc2C(F)(F)F)cc1CN1C[C@@H]2CN(S(=O)(=O)C(C)C)CCN2[C@H](C(c2ccccc2)c2ccccc2)C1.Cl.Cl

System: emesis in the dog
Assay: Emesis in the Dog (apomorphine-induced retching and vomiting)
Type: in vivo
Conditions: adult female dogs; test compound i.v. at 1.0 mg/kg; 5 min later subcutaneous apomorphine (0.1 mg/0.5 ml/kg); observed for 60 min
Description: Individually housed adult female dogs (8 to 15 kg) were given an i.v. injection of a solution containing a test compound. 5 Min later the emetic responses (retching and vomiting) were induced by administration of subcutaneous apomorphine (0.1 mg/0.5 ml/kg) and observed for the next 60 min. The timing and number of retches and vomits observed were recorded for each animal. An individual animal was tested with at least 10 days between experiments.

Compound	inhibition rate of emesis [%]
COC(=O)N1CCN2[C@H](CN(Cc3cc(-n4nnnc4C(F)(F)F)ccc3OC)C[C@H]2C(c2ccccc2)c2ccccc2)C1.Cl.Cl [Example 28, (6R,9aR)-6-benzhydryl-8-[2-methoxy-5-[5-(trifluoromethyl)-1H-tetrazol-1-yl]benzyl]octahydropyrazino[1,2-a]pyrazine-2-carboxylic acid methyl ester dihydrochloride]	90
